Experimental data reported in article PMC10004195, “Novel Dual-Target Kinase Inhibitors of EGFR and ALK Were Designed, Synthesized, and Induced Cell Apoptosis in Non-Small Cell Lung Cancer” (Molecules, 2023).
Read-outs that look alike come from different tables or passages of the source.

Assays:
[1] = test system: H1975 (EGFR T790M/L858R) cells; experiment: CCK8 antiproliferative assay, H1975 cells; type: cell-based, human; details: Homo sapiens
Text: (§1) The human cancer cell lines (H1975, H2228) used in this study were purchased from the Guangzhou ginny ou biotechnology Co., Ltd. (Guangzhou, China). The human cancer cell lines (NCI-H522) used in this study were purchased from the Shenzhen Haodi Huatuo Biotechnology Co., LTD (Shenzhen, China). The human cancer cell lines (LOVO, HLF, BJ, LO2) used in this study were purchased from the Laboratory Animal Service Center at Sun Yat-sen University (Guangzhou, China). […] Cell lines LOVO, HLF, BJ, and LO2 were cultivated in DMEM containing 10% (v/v) heat-inactivated fetal bovine serum (FBS), 100 units/mL penicillin, and 100 μg/mL streptomycin.

H2228 (EML4-ALK) cells = experiment: CCK8 antiproliferative assay, H2228 cells; type: cell-based, human; details: Homo sapiens, NCI-H2228, 72 h, CCK8 assay, 72 h, H2228 (EML4-ALK); read-out: IC50 H2228
Text: as §1

[2] = test system: 293A (human embryonic kidney cells); experiment: Cytotoxicity test on nontumorigenic cells, 293A; type: cell-based
Text: (§2) It is critical to evaluate the balance between the safety and efficacy of drugs for the development of new drugs; thus, we then conducted a cytotoxicity test on […] types of nontumorigenic cell lines from different origins, including LO2 (human normal liver cells), HK2 (human kidney proximal convoluted tubule epithelial cells), HLF (human embryonic lung fibroblast), 293A (human embryonic kidney cells), and HUVEC (human umbilical vein endothelial cells). […] In addition, we evaluated the compound’s safety in vivo by performing acute toxicity tests in mice, and 9j was injected intravenously at concentrations of 100 mg/kg, 150 mg/kg, and 300 mg/kg.
(§3) A total of 7000 cells per well were seeded in a 96-well plate with at least three technical replicates; then, exposed to different concentrations (10, 5, 1, 0.1, 0.05, 0.01 uM) of the test compounds for 72 h. After the treatment, CCK8 (Sigma, St. Louis, MO, USA) was added to each well under sterile conditions (to a final concentration of 10% of the total volume) and the plates were incubated for 2–4 h at 37 °C. Absorbance was measured at 450 nm in a microplate reader.

[3] = test system: HUVEC (human umbilical vein endothelial cells); experiment: Cytotoxicity test on nontumorigenic cells, HUVEC; type: cell-based
Text: as §2, §3

[4] = test system: nontumorigenic cell lines
Text: as §2, §3

EGFR^L858R/T790M = EGFR^L858R/T790M (Homo sapiens, UniProt P00533, L858R/T790M); experiment: Kinase ELISA assay, EGFR L858R/T790M; type: biochemical; details: read-out: IC50 against EGFR^L858R/T790M
Experimental: (§4) Four kinases (EGFR, EGFR^L858R/T790M, ALK, and EML4-ALK) were tested using an ELISA assay. […] There was no effect on the wild-type EGFR or ALK kinases triggered by the compound. Consequently, the selection of the compound was good as both compounds balanced IC50 against EGFR and ALK, respectively. […] Following that, fluorescence assays were used to measure the phosphorylation of the EGFR and ALK protein affect with compound 9j at the cellular level. […] Next, WB assay was used to test the protein expression of H1975 and H2228 cells at the concentration of 5, 10, and 100 nM.

EML4-ALK = EML4-ALK (Homo sapiens, UniProt Q9UM73); experiment: Kinase ELISA assay, EML4-ALK; type: biochemical; details: read-out: IC50 against EML4-ALK
Experimental: as §4

EGFR wild-type kinase = EGFR wild-type kinase (Homo sapiens, UniProt P00533); experiment: Kinase ELISA assay, wild-type EGFR; type: biochemical
Experimental: as §4

ALK wild-type kinase = ALK wild-type kinase (Homo sapiens, UniProt Q9UM73); experiment: Kinase ELISA assay, wild-type ALK; type: biochemical
Experimental: as §4

H1975 cells [5] = experiment: Apoptosis assay by flow cytometry (annexin V / PI); type: cell-based, human; details: 48 h, control 6.07%
Text: The death of cells occurs by apoptosis, and the uncontrolled division and multiplication of cells causes cancer. Inhibiting cellular apoptosis is primarily responsible for cancer cell survival, since cellular apoptosis is negatively correlated with cell growth. We then verified the antitumor effect of compound 9j by inducing apoptosis through flow cytometry.
To assay the number of apoptotic cells, cells were stained with allo-phycocyanin–annexin V (#550475, BD Pharmingen, Becton Drive Franklin Lakes, NJ, USA) for 15 min; then, they were washed and resuspended in 1:500 propidium iodide (#81845, Sigma-Aldrich, St. Louis, Mo, USA) viability marker, and acquired on LSRFortessa. Data were analyzed with FlowJo software. Annexin V+ cells were considered as apoptotic cells.

p-AKT = experiment: Western blot, p-AKT; type: cell-based, human; details: WB, 5, 10 and 100 nM, 3 h treatment
Experimental: as §4
H1975 (H2228) cells seeded in 60 mm dishes at a density of 5 × 10^5 cells/well were incubated with or without compound 9j (0, 5, 10, 100 nM) for 2–4 h. After treatment, cells were stained as previously described.

H1975 cells [6] = experiment: Wound-healing (cell scratching) assay; type: cell-based, human; details: H1975, 48 h; PBS group about 70%
Experimental: (§5) The migration and invasion of tumor cells directly contribute to metastasis. Metastasis is the leading cause of death in cancer patients. To determine the ability of 9j to inhibit tumor cell migration, the cell scratching assay was performed. Following scratching, phase contrast pictures were taken of the scratched and healing cell monolayers.
H1975 cells were plated in a six-well culture dish at 5 × 10^4 cells/dish and grown for 24 h, and […]. The medium was then replaced with a serum-free 1640 medium and treated with compound 9j at the indicated concentrations for another 24 h or 48 h. After the samples were washed with phosphate buffer solution (PBS), the cell images were immediately detected by a Zeiss LSM 570 laser scanning confocal microscope (Carl Zeiss, Jena, Germany).

H1975 cells [7] = experiment: Transwell migration and invasion assay; type: cell-based, human
Experimental: as §5
Migration assay was performed using an 8 um pore Boyden chamber (24-well, #353097, Corning, NY, USA), and incubated in the presence or absence of compound 9j. A total of 50,000 cells were seeded in serum-free medium in the top chamber and allowed to migrate for 48 h toward the bottom chamber containing 10% fetal bovine serum medium. Cells were fixed and permeabilized with cold 70% ethanol and methanol, and stained with 0.4% crystal violet. The average number of migrating cells was evaluated from at least four independent microscope fields.

EGFR^L858R/T790M, sequence (P00533 25-1210 T790M/L858R): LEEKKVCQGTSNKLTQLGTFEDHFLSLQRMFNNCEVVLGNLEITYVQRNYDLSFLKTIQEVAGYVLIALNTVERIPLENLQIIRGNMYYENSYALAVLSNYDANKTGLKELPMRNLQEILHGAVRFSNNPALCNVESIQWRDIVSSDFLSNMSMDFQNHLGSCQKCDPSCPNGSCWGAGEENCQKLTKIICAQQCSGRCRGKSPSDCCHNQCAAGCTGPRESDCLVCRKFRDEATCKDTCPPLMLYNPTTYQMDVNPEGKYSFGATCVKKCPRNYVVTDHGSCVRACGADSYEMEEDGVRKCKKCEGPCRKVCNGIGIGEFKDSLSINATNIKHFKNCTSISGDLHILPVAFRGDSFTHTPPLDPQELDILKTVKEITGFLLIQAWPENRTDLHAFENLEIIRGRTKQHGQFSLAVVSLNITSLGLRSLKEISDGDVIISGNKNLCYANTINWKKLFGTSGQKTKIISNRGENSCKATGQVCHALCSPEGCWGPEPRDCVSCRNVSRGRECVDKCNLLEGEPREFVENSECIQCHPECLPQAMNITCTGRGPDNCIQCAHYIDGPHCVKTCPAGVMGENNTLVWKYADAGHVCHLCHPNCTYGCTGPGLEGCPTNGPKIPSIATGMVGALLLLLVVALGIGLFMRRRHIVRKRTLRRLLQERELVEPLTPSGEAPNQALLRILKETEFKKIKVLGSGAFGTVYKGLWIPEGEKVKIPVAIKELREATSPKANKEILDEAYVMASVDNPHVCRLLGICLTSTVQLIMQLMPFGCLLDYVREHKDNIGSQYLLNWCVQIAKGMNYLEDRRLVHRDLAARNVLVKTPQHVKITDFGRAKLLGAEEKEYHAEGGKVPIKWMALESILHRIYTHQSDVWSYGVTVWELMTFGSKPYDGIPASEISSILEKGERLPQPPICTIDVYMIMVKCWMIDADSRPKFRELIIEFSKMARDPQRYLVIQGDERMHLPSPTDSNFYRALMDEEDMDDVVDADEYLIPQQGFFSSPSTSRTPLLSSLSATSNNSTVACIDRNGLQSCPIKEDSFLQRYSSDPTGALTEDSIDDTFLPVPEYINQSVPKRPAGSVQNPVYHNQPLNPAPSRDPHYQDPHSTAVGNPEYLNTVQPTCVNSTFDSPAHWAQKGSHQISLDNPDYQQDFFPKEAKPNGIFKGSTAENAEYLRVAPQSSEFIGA
ALK wild-type kinase, sequence (Q9UM73 19-1620): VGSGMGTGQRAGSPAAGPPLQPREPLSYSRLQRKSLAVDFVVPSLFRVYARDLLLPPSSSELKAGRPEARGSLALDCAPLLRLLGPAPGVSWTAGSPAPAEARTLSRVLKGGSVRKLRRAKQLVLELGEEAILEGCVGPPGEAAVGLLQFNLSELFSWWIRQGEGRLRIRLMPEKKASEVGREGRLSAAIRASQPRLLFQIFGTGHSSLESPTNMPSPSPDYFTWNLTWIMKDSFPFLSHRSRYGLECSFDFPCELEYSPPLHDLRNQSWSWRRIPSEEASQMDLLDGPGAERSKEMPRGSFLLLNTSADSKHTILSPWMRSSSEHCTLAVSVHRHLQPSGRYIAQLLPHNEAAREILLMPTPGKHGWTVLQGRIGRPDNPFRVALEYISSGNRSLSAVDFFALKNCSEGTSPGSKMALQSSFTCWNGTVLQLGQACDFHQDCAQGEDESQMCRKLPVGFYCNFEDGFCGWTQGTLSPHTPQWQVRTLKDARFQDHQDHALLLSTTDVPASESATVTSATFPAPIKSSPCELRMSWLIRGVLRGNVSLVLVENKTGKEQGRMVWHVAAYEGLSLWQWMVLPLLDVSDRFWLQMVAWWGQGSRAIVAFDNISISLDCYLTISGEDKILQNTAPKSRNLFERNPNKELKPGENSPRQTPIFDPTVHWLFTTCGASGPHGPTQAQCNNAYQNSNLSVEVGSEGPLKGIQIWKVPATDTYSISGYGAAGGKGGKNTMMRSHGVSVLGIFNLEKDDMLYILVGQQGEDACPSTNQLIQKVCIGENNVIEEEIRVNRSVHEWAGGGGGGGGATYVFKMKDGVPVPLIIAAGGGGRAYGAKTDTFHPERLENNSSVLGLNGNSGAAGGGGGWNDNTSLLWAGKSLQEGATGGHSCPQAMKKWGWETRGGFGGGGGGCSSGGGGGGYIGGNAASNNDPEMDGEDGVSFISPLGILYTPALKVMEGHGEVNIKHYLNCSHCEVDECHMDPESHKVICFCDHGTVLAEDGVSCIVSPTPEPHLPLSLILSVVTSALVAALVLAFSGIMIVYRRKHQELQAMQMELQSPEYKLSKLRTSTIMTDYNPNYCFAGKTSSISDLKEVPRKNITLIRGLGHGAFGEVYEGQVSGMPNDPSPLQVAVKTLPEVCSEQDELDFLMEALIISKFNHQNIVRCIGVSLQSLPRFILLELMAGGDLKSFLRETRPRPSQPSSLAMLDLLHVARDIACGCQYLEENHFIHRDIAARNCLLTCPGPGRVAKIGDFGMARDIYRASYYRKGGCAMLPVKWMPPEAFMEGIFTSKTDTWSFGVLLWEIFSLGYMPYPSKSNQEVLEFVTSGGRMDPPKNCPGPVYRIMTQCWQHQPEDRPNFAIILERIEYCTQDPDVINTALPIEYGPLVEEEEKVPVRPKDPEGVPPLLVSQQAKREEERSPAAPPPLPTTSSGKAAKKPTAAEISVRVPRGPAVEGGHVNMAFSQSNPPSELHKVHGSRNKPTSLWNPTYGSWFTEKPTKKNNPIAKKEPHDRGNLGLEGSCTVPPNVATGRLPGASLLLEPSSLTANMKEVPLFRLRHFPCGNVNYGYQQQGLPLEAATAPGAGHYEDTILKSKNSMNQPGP
EML4-ALK, sequence (Q9UM73 1058-1620): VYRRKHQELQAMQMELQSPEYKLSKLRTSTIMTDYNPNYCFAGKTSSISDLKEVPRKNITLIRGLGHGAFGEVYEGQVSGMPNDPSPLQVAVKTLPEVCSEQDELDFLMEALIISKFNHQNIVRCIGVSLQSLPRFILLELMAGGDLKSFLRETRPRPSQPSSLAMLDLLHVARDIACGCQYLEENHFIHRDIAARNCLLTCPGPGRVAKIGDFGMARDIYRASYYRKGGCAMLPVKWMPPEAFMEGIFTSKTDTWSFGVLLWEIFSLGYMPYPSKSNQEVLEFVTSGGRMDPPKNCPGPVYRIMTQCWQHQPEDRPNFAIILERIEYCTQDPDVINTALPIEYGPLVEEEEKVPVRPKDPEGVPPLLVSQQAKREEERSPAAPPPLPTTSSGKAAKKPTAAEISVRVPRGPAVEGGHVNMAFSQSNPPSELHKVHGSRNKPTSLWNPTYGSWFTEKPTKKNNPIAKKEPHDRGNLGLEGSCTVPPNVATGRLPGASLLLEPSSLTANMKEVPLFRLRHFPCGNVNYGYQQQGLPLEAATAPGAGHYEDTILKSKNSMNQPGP
EML4-ALK, sequence (Q9HC35 1-496, further chain): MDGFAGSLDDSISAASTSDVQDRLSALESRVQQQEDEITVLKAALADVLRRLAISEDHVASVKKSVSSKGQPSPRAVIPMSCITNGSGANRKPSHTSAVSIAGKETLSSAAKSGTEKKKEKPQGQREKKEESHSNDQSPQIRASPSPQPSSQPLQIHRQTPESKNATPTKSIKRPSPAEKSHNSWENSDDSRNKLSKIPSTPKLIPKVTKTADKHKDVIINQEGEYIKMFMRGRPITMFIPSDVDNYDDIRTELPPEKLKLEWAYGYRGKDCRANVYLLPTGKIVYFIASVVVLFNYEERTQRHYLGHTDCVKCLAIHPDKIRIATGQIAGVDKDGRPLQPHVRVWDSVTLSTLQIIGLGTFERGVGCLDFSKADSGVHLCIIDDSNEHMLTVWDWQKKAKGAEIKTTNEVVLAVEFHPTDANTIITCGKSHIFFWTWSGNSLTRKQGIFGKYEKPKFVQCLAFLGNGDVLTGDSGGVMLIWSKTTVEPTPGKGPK
EGFR wild-type kinase, sequence (P00533 25-1210): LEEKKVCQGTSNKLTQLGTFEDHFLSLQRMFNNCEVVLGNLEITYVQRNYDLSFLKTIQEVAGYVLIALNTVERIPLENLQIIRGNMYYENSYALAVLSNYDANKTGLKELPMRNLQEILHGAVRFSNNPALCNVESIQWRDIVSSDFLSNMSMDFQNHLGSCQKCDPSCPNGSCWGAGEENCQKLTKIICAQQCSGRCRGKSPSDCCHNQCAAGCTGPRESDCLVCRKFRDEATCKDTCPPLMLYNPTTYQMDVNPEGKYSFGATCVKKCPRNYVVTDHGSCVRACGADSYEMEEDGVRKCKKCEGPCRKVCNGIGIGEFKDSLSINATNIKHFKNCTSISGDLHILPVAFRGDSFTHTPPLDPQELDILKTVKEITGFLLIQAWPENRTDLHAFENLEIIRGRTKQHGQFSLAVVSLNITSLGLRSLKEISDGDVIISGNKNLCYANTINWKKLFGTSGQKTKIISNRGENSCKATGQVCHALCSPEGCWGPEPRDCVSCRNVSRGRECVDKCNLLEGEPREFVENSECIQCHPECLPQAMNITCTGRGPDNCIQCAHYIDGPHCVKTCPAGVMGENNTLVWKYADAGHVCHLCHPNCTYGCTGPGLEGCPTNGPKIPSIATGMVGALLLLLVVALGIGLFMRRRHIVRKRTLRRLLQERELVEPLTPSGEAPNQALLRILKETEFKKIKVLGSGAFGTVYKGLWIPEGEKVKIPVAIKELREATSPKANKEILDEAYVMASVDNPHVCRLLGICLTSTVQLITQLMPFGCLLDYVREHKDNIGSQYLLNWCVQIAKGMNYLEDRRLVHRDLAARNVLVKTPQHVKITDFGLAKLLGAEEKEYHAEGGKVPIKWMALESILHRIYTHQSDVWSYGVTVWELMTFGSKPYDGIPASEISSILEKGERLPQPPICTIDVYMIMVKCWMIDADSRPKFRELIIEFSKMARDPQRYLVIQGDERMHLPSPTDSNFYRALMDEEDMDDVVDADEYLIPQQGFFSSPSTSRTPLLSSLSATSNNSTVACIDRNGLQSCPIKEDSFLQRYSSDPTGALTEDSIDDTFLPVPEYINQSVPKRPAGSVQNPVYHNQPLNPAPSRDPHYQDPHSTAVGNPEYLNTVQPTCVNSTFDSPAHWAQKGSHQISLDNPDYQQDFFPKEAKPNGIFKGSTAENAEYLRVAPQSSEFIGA

## C=CC(=O)Nc1cc(Nc2ncc(Cl)c(Nc3ccc(Cl)cc3[S+]([O-])C(C)C)n2)c(OC)cc1C1CCN(C)CC1 (stereo not drawn) [9j, N-(5-((5-Chloro-4-((4-chloro-2-(isopropylsulfinyl)phenyl)amino)pyrimidin-2-yl)amino)-4-methoxy-2-(1-methylpiperidin-4-yl)phenyl)acrylamide]
[1]; NCI-H1975, 72 h, CCK8 assay, 72 h, H1975 (EGFR T790M/L858R), read-out: IC50 H1975
  IC50: 78.3 ± 30 nM
[1]; NCI-H1975, H1975, mean ± SE, unit inferred, read-out: IC50 H1975 (Table 2)
  IC50: 78.3 ± 30 nM
H2228 (EML4-ALK) cells
  IC50: 81.8 ± 20 nM
[2]; 293A vs H1975
  Selectivity Ratio (IC50 human normal cells)/(IC50 H1975), 293A: 255.5
[2]; Homo sapiens, 293A, mean ± SE, read-out: Toxicity to normal cells, IC50 293A
  IC50: 20000 ± 50 nM
[3]; HUVEC vs H1975
  Selectivity Ratio (IC50 human normal cells)/(IC50 H1975), HUVEC: 273.8
[3]; Homo sapiens, HUVEC, mean ± SE, read-out: Toxicity to normal cells, IC50 HUVEC
  IC50: 21360 ± 60 nM
[4]
  toxicity toward the nontumorigenic cell lines: very little apparent toxicity
EGFR^L858R/T790M
  IC50: 35.7 ± 0.9 nM
EML4-ALK
  IC50: 56.3 ± 0.3 nM
EGFR wild-type kinase
  IC50: 236 ± 27 nM
ALK wild-type kinase
  IC50: 130 ± 15 nM
H1975 cells [5]; 10 nM
  apoptotic rate: 12.7%
H1975 cells [5]; 50 nM
  apoptotic rate: 26.8%
H1975 cells [5]; 100 nM
  apoptotic rate: 47.67%
p-AKT
  expression of p-AKT: inhibited
H1975 cells [6]
  scratch healing rate: clearly decreased
H1975 cells [7]
  invasion ability: reduced its invasion ability in a concentration-dependent manner
